Legend:
B16-CD73+ tumor cells = experiment: anti-tumor activity in syngeneic mice injected intravenously with B16-CD73+ tumor cells (lung nodules); format: in vivo, C57Bl/6 mice; settings: for number of lung nodules: oral, 30 mg/Kg/day, similar conditions, University of Barcelona, FIGS. 1b and 1c
Protocol: (§1) (mean lung nodules of 9-10 mice/group±standard errors are shown; *: P<0.05 by Student T test).
(§2) FIGS. 1b and 1c show the anti-tumoral activity of orally administered Compound A and Compound B in two syngeneic mouse models of cancer. (mean lung nodules of 9-10 mice/group±standard errors are shown; *: P<0.05 by Student T test).
(§3) All experiments were carried out in accordance with guidelines set out by the Animal Experimental Ethics Committee. […] Vehicle consisted of 0.1% Tween 80 and 0.5% sodium carboxymethylcellulose (NaCMC) in water. Mice were euthanized at day 15, lungs harvested and tumor nodules counted under dissecting microscope. […] Freshly resected NSCLC tumors were obtained through the Tissue Core at Moffitt Cancer Center. The tumor was disaggregated for 2 hours in a Collagenase/DNase solution in the presence of complete protease inhibitors (Roche). Total cells (Tu) were counted. […] IL-2 has been used in some experiments in order to stimulate the IFN-γ production in these very resistant tumor cells. […] IFNg (IFN-γ ELISA R&D Systems) was determinated as a measure of T cell reactivity to autologous tumor cells. […] The compounds A and B were tested using similar experimental conditions, with the exception that the freshly resected NSCLC tumors were obtained from the Hospital Clínico in Barcelona. […] FIG. 8 a-g show the results obtained in each case. […] This is considered a clear signal of immune stimulation of the infiltrating lymphocytes presents in the tumors. […] 4. […] A compound of Formula I will be administered orally to the patient twice daily, fasting, at a dose of 80 mg, 160 mg, 320 mg or 640 mg throughout a cycle of 28 days. […] Response and progression will be evaluated in this study using the new international criteria proposed by the revised Response Evaluation Criteria in Solid Tumors (RECIST) guideline (version 1.1; Eisenhauer E A, Therasse P, Bogaerts J, et al. New response evaluation criteria in solid tumours: revised RECIST guideline (version 1.1). Eur J Cancer 2009; 45:228-47). […]

[1] = tested on: freshly resected NSCLC tumors (human lung tumour explants); experiment: ex vivo human lung tumour explants: IFNg secretion (IFN-γ ELISA) as measure of T cell (TIL) reactivity; format: cell-based; settings: for secretion of IFNg of tumor cells: NSCLC tumors from Hospital Clínico in Barcelona; for interferon gamma secretion from lung tumor cells stimulated with IL-2: FIG. 3
Protocol: (§4) All experiments were carried out in accordance with guidelines set out by the Animal Experimental Ethics Committee. […] Vehicle consisted of 0.1% Tween 80 and 0.5% sodium carboxymethylcellulose (NaCMC) in water. Mice were euthanized at day 15, lungs harvested and tumor nodules counted under dissecting microscope. […] Freshly resected NSCLC tumors were obtained through the Tissue Core at Moffitt Cancer Center. The tumor was disaggregated for 2 hours in a Collagenase/DNase solution in the presence of complete protease inhibitors (Roche). Total cells (Tu) were counted. […] IL-2 has been used in some experiments in order to stimulate the IFN-γ production in these very resistant tumor cells. […] IFNg (IFN-γ ELISA R&D Systems) was determinated as a measure of T cell reactivity to autologous tumor cells. […] The compounds A and B were tested using similar experimental conditions, with the exception that the freshly resected NSCLC tumors were obtained from the Hospital Clínico in Barcelona. […] FIG. 8 a-g show the results obtained in each case. […] This is considered a clear signal of immune stimulation of the infiltrating lymphocytes presents in the tumors. […] 4. […] A compound of Formula I will be administered orally to the patient twice daily, fasting, at a dose of 80 mg, 160 mg, 320 mg or 640 mg throughout a cycle of 28 days. An anti-PD-1 antibody will be administered at a dose of about 300 mg or about 400 mg once every 3 week or once every 4 weeks. The anti-PD-1 antibody will be administered via IV infusion over a period of 30 minutes to 2 h. The compound of Formula I will be administered fasting immediately prior to the infusion with the anti-PD-1 antibody. In order to determine efficacy, baseline evaluations will be performed as closely as possible to the beginning of treatment and never more than 4 weeks before the beginning of the treatment. In addition to a baseline scan, confirmatory scans will be obtained 4-6 weeks following initial documentation of objective response. Response and progression will be evaluated in this study using the new international criteria proposed by the revised Response Evaluation Criteria in Solid Tumors (RECIST) guideline (version 1.1; Eisenhauer E A, Therasse P, Bogaerts J, et al. New response evaluation criteria in solid tumours: revised RECIST guideline (version 1.1). Eur J Cancer 2009; 45:228-47). Changes in the largest diameter (unidimensional measurement) of the tumor lesions and the shortest diameter in the case of malignant lymph nodes are used (Schwartz L H, Bogaerts J, Ford R, et al. Evaluation of lymph nodes with RECIST 1.1. Eur J Cancer 2009; 45:261-7). All The same method of assessment and the same technique will be used to characterize each identified and reported lesion at baseline and during follow-up. Imaging-based evaluation such as Chest x-ray, conventional CT and MRI will be used.

MCA205 tumor cells = experiment: anti-tumor activity in syngeneic mice injected intravenously with MCA205 tumor cells (lung nodules); format: in vivo, C57Bl/6 mice; settings: for number of lung nodules: oral, 30 mg/Kg/day, similar conditions, University of Barcelona, FIGS. 1b and 1c
Protocol: as §1, §2, §3

[2] = tested on: resistant human lung tumor explants; experiment: Bioplex assay of interleukins secretion in supernatants of resistant human lung tumor explants; format: cell-based
Protocol: as §4

[3] = toxicity profile in different animal models; format: in vivo; settings: in comparison with classical chemotherapy and other adenosine receptor antagonists
[4] = compound alone, 1 μM, FIGS. 4-7 (IL-2 stimulated)
[5] = in combination with an anti-PD-L1 or an anti-PD-1 antibody, FIGS. 4-7
[6] = compound alone, supernatants from ex vivo experiments, FIG. 8

In the case of `Nc1nc(-n2cccn2)nc(-n2cccn2)c1Cl` [Compound A, 5-chloro-2,6-di-(1H-pyrazol-1-yl)pyrimidin-4-amine, reference compound], the “number of lung nodules” value (B16-CD73+ tumor cells) is reported as “no significant reduction”, the “secretion of IFNg of tumor cells” value [1, 4] is reported as “not able to increase the secretion of IFNg” and the “secretion of IFNg of tumor cells” value [1, 5] is reported as “not able to increase the secretion of IFNg”. For the same compound, the “number of lung nodules” value (MCA205 tumor cells) was “no significant reduction”.
With `N#Cc1c(N)nc(-n2cccn2)nc1-n1cccn1` [Compound B, 4-amino-2,6-di-(1H-pyrazol-1-yl)pyrimidine-5-carbonitrile, reference compound] the “number of lung nodules” value (B16-CD73+ tumor cells) was “no significant reduction”, the “secretion of IFNg of tumor cells” value [1, 4] was “not able to increase the secretion of IFNg” and the “secretion of IFNg of tumor cells” value [1, 5] was “not able to increase the secretion of IFNg”. The “number of lung nodules” value (MCA205 tumor cells) was “no significant reduction”.
For `Nc1nc(-n2cccn2)nc(-n2cccn2)c1Br` [Compound of formula (I), 5-bromo-2,6-di-(1H-pyrazol-1-yl)pyrimidin-4-amine], the “tumor burden (lung nodule and lung metastasis)” value (B16-CD73+ tumor cells; 3×10^5 B16-CD73+ cells i.v., 15 mg/kg/day oral gavage daily for 15 days vs vehicle, nodules counted day 15, FIG. 1a) was “significantly reduced tumor burden”, the “TIL function (IFNg concentration)” value ([1]; 1 μM in combination with anti-PD-L1 antibody, other tumors) was “synergistically capable of restoring TIL function” and the “TIL function (IFNg concentration)” value ([1]; 1 μM in combination with anti-PD-L1 antibody, some of the samples) was “improved TIL function (as determined by measuring IFNg concentration) in additive way”. For the same compound, the “interferon gamma secretion from lung tumor cells stimulated with IL-2” value ([1]; compound alone) was “significantly increased”, the “interferon gamma secretion from lung tumor cells stimulated with IL-2” value ([1]; in combination with anti-PD-1 antibody, compared with compound alone) was “more pronounced” and the “interferon gamma secretion of non-stimulated lung tumor cells” value ([1]; in combination with anti-PD-L1 antibody, FIG. 2) was “significantly increase”. For the same compound, the “TIL function (IFNg concentration)” value ([1]; single agent, other tumors, compound 1 μM, antibody 10 mg/ml) was “had no effect on TIL function”, the “TIL reactivity (IFNg concentration)” value ([1]; single agent, some of the samples, 200,000 cells/well, 3 days, compound 1 μM, antibody 10 mg/ml) was “partially restored TIL reactivity” and the “secretion of IL5 (Interleukin 5) to the medium” value [2, 6] was “significantly increase the secretion”. For the same compound, the “secretion of IL10 (Interleukin 10) to the medium” value [2, 6] was “significantly increase the secretion”, the “secretion of IL13 (Interleukin 13) to the medium” value [2, 6] was “significantly increase the secretion” and the “secretion of IL17 (Interleukin 17) to the medium” value [2, 6] was “significantly increase the secretion”. The “secretion of ILib (Interleukin 1b) to the medium” value [2, 6] was “significantly increase the secretion”, the “secretion of MIP1b to the medium” value [2, 6] was “significantly increase the secretion” and the “secretion of tumor necrosis factor α (TNFα) to the medium” value [2, 6] was “significantly increase the secretion”. The “secretion of different interleukins” value ([2]; in combination with either an anti PDL-1 or an anti-PD-1 antibody) was “increased the secretion of different interleukins of these tumors synergistically”, the toxicity profile [3] was “low toxicity profile” and the “tumor burden (lung nodule and lung metastasis)” value (MCA205 tumor cells; 2×10^5 MCA205 cells i.v., 30 mg/kg/day oral gavage daily for 7 days vs vehicle, nodules counted day 15, FIG. 1a) was “significantly reduced tumor burden”.
